From patent US20260000763A1, “Methods of Manufacturing Therapeutic Cells” (The Board of Trustees of the Leland Stanford Junior …, priority 2022, published 2026) come the findings set out here.

For this assay, the system named is GD2 CAR T cells. The assay is described as follows: Large-scale manufacturing of GD2.bbz CAR T cells in G-Rex system in regular or inosine media. It counts as cell-based. Here is the method: Enriched CD4/CD8+ T cells from a healthy donor were cultured in regular or inosine-containing media in the G-Rex system. Cells were analyzed at days 7 post-activation. A: Scheme of the large scale experiment. B: Expansion of GD2 CAR T cells manufactured in control vs inosine-containing media. N=1 out of two donors is shown. C: Number of CAR+ T cells at the day 7 post activation. D: Viability of T cells. E: Percentage of CAR+ and CD4 vs CD8 T cells. Data from one representative donor is shown. N=2. F: Relative frequency of terminally differentiated effector (EMRA; CD45RA+ CCR7-), naïve (CD45RA+ CCR7+), central memory (CM; CD45RA-CCR7+), and effector memory (EM; CD45RA-CCR7-) cells in CD8+ control or inosine-grown GD2 CAR T cells. G: IL-2 and IFNγ secretion by CAR T cells stimulated with 143b, mg63.3 or Nalm6-GD2 tumor lines. […] P values were determined by unpaired two-tailed t-tests.
FIG. 13A-13H: Clinical scale manufacturing of clinical grade GD2-CAR T cells using media containing inosine, improves CAR product quality. A: Schematic of large-scale manufacturing of GD2.bbz-CAR+ T cells in a semi-closed G-Rex system in glucose-or inosine-containing media. 7 days post-activation, transduction efficiency, percentage of viable cells, and CD4/CD8 ratio of GD2+ cells were assessed by flow cytometry. […] B: Expansion of total viable T cells manufactured in control (black) vs. inosine (green)-containing media and (Right) corresponding number of CAR+ cells at day 7. […] C: IL-2 and IFNg secretion by CAR T cells stimulated for 24 hrs with 143b, mg63.3 or Nalm6-GD2 tumor lines. […] D: NSG mice were injected with 1×10^6 Nalm6 leukemia cells. On day 3 post-tumor injection, 2×10^6 of mock or GD2.bbz-CAR T cells manufactured in the presence of inosine or in regular media were transferred intravenously. Tumor growth was monitored by bioluminescent imaging. […] P values determined at day 43 by using Mann-Whitney test. […] E: Concentration of CD45+ T cells detected in blood of mice at D33 post-CAR T cell injection. […] F: Schematic of the experimental design. G: GD2.bbz-CAR T cells grown in media containing indicated inosine concentration between day 3 and day 10 post-activation and stimulated with 143b tumor. IL-2 and IFNg secretion after 24 hrs of co-culture was measured. Data are mean±s.d. of duplicate or triplicate wells. Representative of n=3 donors shown. […] Reprograming is due to an increase in glutaminolysis and polyamine synthesis and downregulation of CD73, FOXP3, A2aR and c-AMP response transcription factors.
In this example, the in vivo anti-tumor potency of CAR T cells manufactured in the presence or absence of inosine was assessed. In this particular example, the feasibility of manufacturing GD2 CAR T cells in inosine media in the clinical setting was assessed. 2.5×10^8 enriched CD4+ and CD8+ T cells from a healthy donor were activated with anti-CD3/CD28-coated beads and transduced using clinical grade GD2.bbz vector at MOI=10 (FIG. 6A). From day 3, T cells were continued to be cultured in regular-or inosine containing media in a semi-closed culture system using G-Rex platform. […] There was no difference in product viability (FIG. 6D), nor transduction efficiency nor CD4 vs CD8 ratio (FIG. 6E).
A total of 2.5×10^8 enriched CD4+ and CD8+ T cells from a healthy donor were activated with anti-CD3/CD28-coated beads and transduced using clinical grade GD2-CAR vector at an MOI of 10 (FIG. 13A). On day 3, T cells were maintained in standard RPMI media containing glucose or switched to inosine-containing RPMI without glucose in a semi-closed G-Rex culture platform.

For the compound `O=c1[nH]cnc2c1ncn2[C@@H]1O[C@H](CO)[C@@H](O)[C@H]1O` [inosine, Inosine], where the note is “G-Rex, inosine media from day 3, day 7, one donor (FIG. 6B)”, the “total cells after expansion” value is 384.3×10^6 total cells. Also, the total cell yield (day 7, INO RPMI without glucose from day 3, n=2 donors, s.e.m.) is on record as 238.5×10^6+145.8. In addition, for the setting “day 7, inosine vs control”, the “CD4 vs CD8 ratio” value was “no difference”; the “frequency of naive and central memory GD2 CAR T cells” value was “higher frequency”; the product viability result is “no difference”; the transduction efficiency result is on record as “no difference”.
